Earlier results, collected in US11304902B2, “Pharmaceutical compositions, preparation and uses thereof” (CURADIGM SAS, priority 2014, dated 2022).
“Also recorded” adds a separate entry of the source.

How the values were obtained:
Settings in all cases: human CYP enzyme
CYP2A6 = biological target: T1, CYP2A6 (Homo sapiens, UniProt P11509)
T1 sequence (P11509 1-494): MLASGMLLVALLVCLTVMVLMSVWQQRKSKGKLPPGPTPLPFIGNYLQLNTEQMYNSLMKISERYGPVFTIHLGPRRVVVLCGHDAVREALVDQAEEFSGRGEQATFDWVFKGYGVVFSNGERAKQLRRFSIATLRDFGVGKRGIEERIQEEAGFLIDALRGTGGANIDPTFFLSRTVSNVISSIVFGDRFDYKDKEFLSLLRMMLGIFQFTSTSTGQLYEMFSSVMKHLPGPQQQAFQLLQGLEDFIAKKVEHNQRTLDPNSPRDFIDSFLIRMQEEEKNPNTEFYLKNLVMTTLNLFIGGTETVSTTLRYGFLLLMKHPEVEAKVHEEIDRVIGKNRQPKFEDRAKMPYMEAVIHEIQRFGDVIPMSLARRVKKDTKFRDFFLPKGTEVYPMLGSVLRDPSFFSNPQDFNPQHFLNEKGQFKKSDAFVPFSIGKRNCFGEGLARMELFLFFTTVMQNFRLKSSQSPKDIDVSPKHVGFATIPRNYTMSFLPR

CYP4F2 = biological target: T2, CYP4F2 (Homo sapiens, UniProt P78329)
T2 sequence (P78329 5-520): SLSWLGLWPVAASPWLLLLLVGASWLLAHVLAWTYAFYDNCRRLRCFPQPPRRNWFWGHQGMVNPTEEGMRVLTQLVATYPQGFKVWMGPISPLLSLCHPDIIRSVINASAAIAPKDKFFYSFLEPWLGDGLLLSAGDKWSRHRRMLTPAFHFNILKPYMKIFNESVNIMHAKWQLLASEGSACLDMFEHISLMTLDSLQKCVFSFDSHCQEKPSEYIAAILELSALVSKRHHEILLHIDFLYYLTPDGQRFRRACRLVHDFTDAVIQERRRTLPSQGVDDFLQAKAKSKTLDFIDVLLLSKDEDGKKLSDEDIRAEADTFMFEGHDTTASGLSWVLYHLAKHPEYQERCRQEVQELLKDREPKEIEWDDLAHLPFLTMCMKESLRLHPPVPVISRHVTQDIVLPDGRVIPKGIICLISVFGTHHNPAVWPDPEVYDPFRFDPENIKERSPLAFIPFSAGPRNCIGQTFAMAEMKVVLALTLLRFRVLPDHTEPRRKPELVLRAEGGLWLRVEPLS

CYP2C9 = CYP2C9 (Homo sapiens, UniProt P11712)
Chain of CYP2C9 (P11712 whole entry): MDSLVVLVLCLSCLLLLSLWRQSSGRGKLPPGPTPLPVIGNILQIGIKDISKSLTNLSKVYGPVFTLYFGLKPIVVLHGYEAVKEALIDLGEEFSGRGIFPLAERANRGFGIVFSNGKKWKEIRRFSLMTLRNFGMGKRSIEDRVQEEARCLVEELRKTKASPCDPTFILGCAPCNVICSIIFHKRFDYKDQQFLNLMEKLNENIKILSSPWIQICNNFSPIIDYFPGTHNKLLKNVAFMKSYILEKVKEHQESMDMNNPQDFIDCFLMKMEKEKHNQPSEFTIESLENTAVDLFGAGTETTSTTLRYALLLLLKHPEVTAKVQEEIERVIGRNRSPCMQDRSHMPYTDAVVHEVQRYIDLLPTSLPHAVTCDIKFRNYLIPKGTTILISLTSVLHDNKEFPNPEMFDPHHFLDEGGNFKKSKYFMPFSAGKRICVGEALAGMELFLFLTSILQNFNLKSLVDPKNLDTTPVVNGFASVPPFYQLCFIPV

CYP1A2 = biological target: T3, CYP1A2 (Homo sapiens, UniProt P05177)
T3 sequence (P05177 1-516): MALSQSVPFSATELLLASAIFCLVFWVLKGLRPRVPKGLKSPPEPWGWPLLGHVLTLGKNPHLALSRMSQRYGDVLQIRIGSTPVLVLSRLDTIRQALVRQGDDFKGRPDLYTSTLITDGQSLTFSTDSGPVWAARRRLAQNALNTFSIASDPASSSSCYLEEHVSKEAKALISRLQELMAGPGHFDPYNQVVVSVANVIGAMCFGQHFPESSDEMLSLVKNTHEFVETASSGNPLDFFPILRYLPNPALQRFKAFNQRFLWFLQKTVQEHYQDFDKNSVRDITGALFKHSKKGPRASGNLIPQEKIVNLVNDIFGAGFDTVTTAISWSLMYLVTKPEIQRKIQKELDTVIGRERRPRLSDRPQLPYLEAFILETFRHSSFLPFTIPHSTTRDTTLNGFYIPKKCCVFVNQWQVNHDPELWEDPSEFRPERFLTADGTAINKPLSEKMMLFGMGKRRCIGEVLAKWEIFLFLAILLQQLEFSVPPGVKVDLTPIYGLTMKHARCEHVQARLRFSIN

CYP1B1 = biological target: T4, CYP1B1 (Homo sapiens, UniProt Q16678)
T4 sequence (Q16678 1-543): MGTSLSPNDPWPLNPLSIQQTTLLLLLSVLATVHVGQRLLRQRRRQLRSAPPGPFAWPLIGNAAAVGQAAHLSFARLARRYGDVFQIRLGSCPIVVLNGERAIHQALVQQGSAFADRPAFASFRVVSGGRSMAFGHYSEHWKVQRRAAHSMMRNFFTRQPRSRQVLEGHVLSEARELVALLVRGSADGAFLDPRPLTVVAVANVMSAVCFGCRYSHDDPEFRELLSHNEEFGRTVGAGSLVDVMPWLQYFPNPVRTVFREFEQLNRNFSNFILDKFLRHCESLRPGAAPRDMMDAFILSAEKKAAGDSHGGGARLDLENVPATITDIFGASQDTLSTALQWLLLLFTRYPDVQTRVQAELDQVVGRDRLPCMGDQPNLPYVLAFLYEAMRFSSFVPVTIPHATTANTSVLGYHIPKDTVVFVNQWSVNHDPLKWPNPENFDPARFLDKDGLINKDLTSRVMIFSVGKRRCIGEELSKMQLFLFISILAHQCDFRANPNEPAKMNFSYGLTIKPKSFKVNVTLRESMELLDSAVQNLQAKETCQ

CYP2D6 = CYP2D6 (Homo sapiens, UniProt P10635)
Chain of CYP2D6 (P10635 whole entry): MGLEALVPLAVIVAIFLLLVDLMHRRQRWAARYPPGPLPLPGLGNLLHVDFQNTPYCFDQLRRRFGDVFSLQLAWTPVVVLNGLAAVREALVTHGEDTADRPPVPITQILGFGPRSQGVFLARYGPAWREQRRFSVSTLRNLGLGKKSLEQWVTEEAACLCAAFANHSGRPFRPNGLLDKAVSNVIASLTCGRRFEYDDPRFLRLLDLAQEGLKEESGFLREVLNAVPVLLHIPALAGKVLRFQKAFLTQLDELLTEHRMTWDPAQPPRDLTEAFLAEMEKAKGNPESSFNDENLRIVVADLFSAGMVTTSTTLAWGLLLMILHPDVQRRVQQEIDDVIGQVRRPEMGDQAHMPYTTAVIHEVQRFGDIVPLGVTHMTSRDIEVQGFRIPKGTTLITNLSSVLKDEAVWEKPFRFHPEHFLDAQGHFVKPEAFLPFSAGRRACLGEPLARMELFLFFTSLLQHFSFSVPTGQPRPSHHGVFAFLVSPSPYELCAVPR

- role towards CYP2A6 (substrate / inhibitor / inducer) (CYP2A6): Substrate
- role towards CYP4F2 (substrate / inhibitor / inducer) (CYP4F2): Substrate
- role towards CYP2C9 (substrate / inhibitor / inducer) (CYP2C9): Inhibitor; also recorded: Substrate
- role towards CYP1A2 (substrate / inhibitor / inducer) (CYP1A2): Substrate; also recorded: Inhibitor
- role towards CYP1B1 (substrate / inhibitor / inducer) (CYP1B1): Inhibitor
- role towards CYP2D6 (substrate / inhibitor / inducer) (CYP2D6): Inhibitor
Compound: CCCCC/C=C\C/C=C\C/C=C\C/C=C\CCCC(=O)O [Arachidonic acid, arachidonic acid]
